# Experimental data as given in PubChem BioAssay (NCI).
# Several values for one entry are separate records, joined by “and”; a condition that tells them apart may be missing. Identical values can stand only once.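 Five compound concentrations were applied to cells in 96-well plates for 48 hours; endpoints were derived by simple linear interpolation of the resulting dose-response curve. GI50 is the concentration that inhibits growth by half. TGI: concentration producing complete growth inhibition.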
# What was measured:
# Assay in all cases: NCI anticancer screen, dose series, 48 h
# [1] = tested on: SNB-75 CNS
# [2] = tested on: A498 renal
# [3] = tested on: ACHN renal
# [4] = tested on: SK-MEL-5 melanoma
# [5] = tested on: UO-31 renal
# [6] = tested on: KM12 colon
# [7] = tested on: IGROV1 ovarian
# [8] = tested on: COLO 205 colon
# [9] = tested on: HL-60(TB) leukemia
# [10] = tested on: UACC-257 melanoma
# [11] = tested on: PC-3 prostate
# [12] = tested on: LOX IMVI melanoma
# [13] = tested on: T-47D breast
# [14] = tested on: SK-MEL-2 melanoma
# [15] = tested on: TK-10 renal
# [16] = tested on: K-562 leukemia
# [17] = tested on: UACC-62 melanoma
# [18] = tested on: EKVX NSCLC
# [19] = tested on: SF-295 CNS
# [20] = tested on: SF-268 CNS
# [21] = tested on: M14 melanoma
# [22] = tested on: SK-MEL-28 melanoma
# [23] = tested on: MCF7 breast
# [24] = tested on: NCI-H522 lung
# [25] = tested on: U251 CNS
# [26] = tested on: OVCAR-8 ovarian
# [27] = tested on: OVCAR-4 ovarian
# [28] = tested on: SN12C renal
# [29] = tested on: SK-OV-3 ovarian
# [30] = tested on: HCC-2998 colon
# [31] = tested on: HT29 colon
# [32] = tested on: HOP-92 NSCLC
# [33] = tested on: A549 NSCLC
# [34] = tested on: RXF 393 renal
# [35] = tested on: SW-620 colon
# [36] = tested on: OVCAR-3 ovarian
# [37] = tested on: MDA-MB-231 breast
# [38] = tested on: MDA-MB-435
# [39] = tested on: CAKI-1 renal
# [40] = tested on: MOLT-4 leukemia
# [41] = tested on: SNB-19 CNS
# [42] = tested on: NCI-H460 lung
# [43] = tested on: NCI-H226 lung
# [44] = tested on: RPMI-8226 leukemia
# [45] = tested on: NCI/ADR-RES ovarian
# [46] = tested on: SF-539 CNS
# [47] = tested on: 786-0 renal
# [48] = tested on: HOP-62 NSCLC
# [49] = tested on: MALME-3M melanoma
# [50] = tested on: HS 578T breast
# [51] = tested on: HCT-116 colon
# [52] = tested on: NCI-H23 lung
# [53] = tested on: BT-549 breast
# [54] = tested on: CCRF-CEM leukemia
# [55] = tested on: DU-145 prostate
# [56] = tested on: OVCAR-5 ovarian
# [57] = tested on: HCT-15 colon
# [58] = tested on: SR leukemia
smiles,measurement,setting,value
CCCCCN(CCCCC)CC(O)c1cc2c(c3ccccc13)CCCC2 (stereo not given),GI50,[1],10.4 µM and 11.9 µM
same,TGI,[1],22.7 µM and 25.1 µM
same,GI50,[2],3.34 µM and 10.8 µM
same,TGI,[2],14.1 µM and 23.5 µM
same,GI50,[3],5.03 µM and 8.43 µM
same,TGI,[3],17.9 µM and 22.6 µM
same,GI50,[4],2.08 µM and 3.98 µM
same,TGI,[4],5.01 µM and 14.1 µM
same,GI50,[5],3.79 µM and 6.15 µM
same,TGI,[5],15.6 µM and 22.1 µM
same,GI50,[6],3.34 µM and 6.95 µM
same,TGI,[6],12.3 µM and 21.5 µM
same,GI50,[7],3.5 µM and 6.44 µM
same,TGI,[7],17.3 µM and 33.3 µM
same,GI50,[8],3.4 µM and 13.7 µM
same,TGI,[8],13.8 µM and 80.5 µM
same,GI50,[9],2.53 µM and 7.51 µM
same,GI50,[10],4.88 µM and 13.8 µM
same,TGI,[10],17.5 µM and 30.2 µM
same,GI50,[11],5.14 µM and 5.62 µM
same,TGI,[11],21.6 µM and 20.9 µM
same,GI50,[12],3.71 µM and 4.93 µM
same,TGI,[12],14.8 µM and 28.1 µM
same,GI50,[13],3.04 µM and 7.77 µM
same,TGI,[13],14.2 µM and 25.7 µM
same,GI50,[14],2.86 µM and 11.5 µM
same,TGI,[14],8.2 µM and 29 µM
same,GI50,[15],10.6 µM and 18.2 µM
same,TGI,[15],22.9 µM and 37.9 µM
same,GI50,[16],2.56 µM and 16.3 µM
same,TGI,[16],10.9 µM and > 100 µM
same,GI50,[17],3.31 µM and 11.2 µM
same,TGI,[17],12.9 µM and 29.2 µM
same,GI50,[18],4.92 µM
same,TGI,[18],17.7 µM
same,GI50,[19],2.38 µM and 6.82 µM
same,TGI,[19],11.4 µM and 29.8 µM
same,GI50,[20],11.3 µM and 16.5 µM
same,TGI,[20],23.9 µM and 36.8 µM
same,GI50,[21],4.76 µM and 10.4 µM
same,TGI,[21],16.3 µM and 23.8 µM
same,GI50,[22],12.1 µM
same,TGI,[22],25.5 µM
same,GI50,[23],3.65 µM and 4.63 µM
same,TGI,[23],14.1 µM and 16.7 µM
same,GI50,[24],2.02 µM and 3.24 µM
same,TGI,[24],7.72 µM and 13.4 µM
same,GI50,[25],6.33 µM and 11.5 µM
same,TGI,[25],20.3 µM and 29.6 µM
same,GI50,[26],11.3 µM and 14.9 µM
same,TGI,[26],26.1 µM and 32.9 µM
same,GI50,[27],3.16 µM and 9.19 µM
same,TGI,[27],16 µM and 30.1 µM
same,GI50,[28],6.12 µM and 13.8 µM
same,TGI,[28],19.8 µM and 30 µM
same,GI50,[29],12.4 µM and 17 µM
same,TGI,[29],24.9 µM and 34.8 µM
same,GI50,[30],2.54 µM and 4.28 µM
same,TGI,[30],5.99 µM and 15.6 µM
same,GI50,[31],1.35 µM and 2.22 µM
same,TGI,[31],9.48 µM and 13.6 µM
same,GI50,[32],2.5 µM and 3.53 µM
same,TGI,[32],8.94 µM and 17.1 µM
same,GI50,[33],9.87 µM and 12.3 µM
same,TGI,[33],22.8 µM and 29.7 µM
same,GI50,[34],2.31 µM and 2.88 µM
same,TGI,[34],6.71 µM and 7.13 µM
same,GI50,[35],5.99 µM
same,TGI,[35],19.4 µM
same,GI50,[36],6.22 µM and 10.5 µM
same,TGI,[36],18.7 µM and 24.1 µM
same,GI50,[37],3.01 µM and 7.04 µM
same,TGI,[37],10.5 µM and 21.4 µM
same,GI50,[38],7.68 µM and 13.2 µM
same,TGI,[38],21.9 µM and 36.5 µM
same,GI50,[39],3.44 µM and 4.29 µM
same,TGI,[39],10.9 µM and 20.2 µM
same,GI50,[40],2.95 µM and 26.4 µM
same,TGI,[40],13 µM and > 100 µM
same,GI50,[41],11 µM and 17.9 µM
same,TGI,[41],22.9 µM and 39.4 µM
same,GI50,[42],3.4 µM and 4.36 µM
same,TGI,[42],13.8 µM and 16.1 µM
same,GI50,[43],5.64 µM and 11 µM
same,TGI,[43],20.3 µM and 29.2 µM
same,GI50,[44],2.41 µM and 1.5 µM
same,TGI,[44],7.39 µM and 9.18 µM
same,GI50,[45],6.44 µM and 12.3 µM
same,TGI,[45],20.1 µM and 27.5 µM
same,GI50,[46],4.88 µM and 10.9 µM
same,TGI,[46],16.9 µM and 23.6 µM
same,GI50,[47],3.75 µM and 6.51 µM
same,TGI,[47],13 µM and 19.1 µM
same,GI50,[48],3.62 µM and 12.1 µM
same,TGI,[48],12.9 µM and 25.7 µM
same,GI50,[49],3.71 µM and 10.4 µM
same,TGI,[49],15.6 µM and 24.6 µM
same,GI50,[50],8.51 µM
same,TGI,[50],23.9 µM
same,GI50,[51],2.7 µM and 2.24 µM
same,TGI,[51],12.8 µM and 13.1 µM
same,GI50,[52],3.72 µM and 5.94 µM
same,TGI,[52],14.7 µM and 24.6 µM
same,GI50,[53],12.4 µM and 13.8 µM
same,TGI,[53],25.5 µM and 29.8 µM
same,GI50,[54],5.55 µM and 9.21 µM
same,TGI,[54],22.5 µM and 91.7 µM
same,GI50,[55],10.1 µM and 21.4 µM
same,TGI,[55],21.7 µM and 48.1 µM
same,GI50,[56],11.1 µM and 13.5 µM
same,TGI,[56],23.6 µM and 31.5 µM
same,GI50,[57],5.31 µM and 6.52 µM
same,TGI,[57],20.8 µM and 26.4 µM
C=C1C(=O)O[C@H]2[C@H]1CC/C(CNS(=O)(=O)c1cccc3ccccc13)=C\CC[C@@]1(C)O[C@@H]21,GI50,[2],4.85 µM
same,TGI,[2],17.2 µM
same,GI50,[3],1.19 µM
same,TGI,[3],2.56 µM
same,GI50,[4],1.95 µM
same,TGI,[4],3.98 µM
same,GI50,[5],1.45 µM
same,TGI,[5],2.94 µM
same,GI50,[6],9.76 µM
same,TGI,[6],25.8 µM
same,GI50,[7],1.38 µM
same,TGI,[7],3.4 µM
same,GI50,[8],1.73 µM
same,TGI,[8],3.49 µM
same,GI50,[9],1.21 µM
same,TGI,[9],3.76 µM
same,GI50,[10],1.64 µM
same,TGI,[10],3.89 µM
same,GI50,[11],1.91 µM
same,TGI,[11],4.51 µM
same,GI50,[12],1.45 µM
same,TGI,[12],2.93 µM
same,GI50,[13],1.96 µM
same,TGI,[13],6.51 µM
same,GI50,[14],5.18 µM
same,TGI,[14],18.3 µM
same,GI50,[15],1.48 µM
same,TGI,[15],3.08 µM
same,GI50,[17],1.67 µM
same,TGI,[17],4.5 µM
same,GI50,[18],2.53 µM
same,TGI,[18],10.3 µM
same,GI50,[19],5.49 µM
same,TGI,[19],19.2 µM
same,GI50,[20],3.74 µM
same,TGI,[20],15.1 µM
same,GI50,[21],1.53 µM
same,TGI,[21],3.32 µM
same,GI50,[22],1.97 µM
same,TGI,[22],4.24 µM
same,GI50,[23],1.36 µM
same,TGI,[23],3.14 µM
same,GI50,[24],1.28 µM
same,TGI,[24],2.88 µM
same,GI50,[25],3.67 µM
same,TGI,[25],15.3 µM
same,GI50,[26],2.52 µM
same,TGI,[26],9.16 µM
same,GI50,[27],1.72 µM
same,TGI,[27],3.68 µM
same,GI50,[28],2.12 µM
same,TGI,[28],7.74 µM
same,GI50,[58],1.31 µM
same,TGI,[58],6.11 µM
same,GI50,[29],12.1 µM
same,TGI,[29],24.5 µM
same,GI50,[30],2.16 µM
same,TGI,[30],4.87 µM
same,GI50,[31],1.85 µM
same,TGI,[31],3.86 µM
same,GI50,[32],1.11 µM
same,TGI,[32],2.8 µM
same,GI50,[33],11.5 µM
same,TGI,[33],32.4 µM
same,GI50,[34],1.26 µM
same,TGI,[34],2.87 µM
same,GI50,[35],0.713 µM
same,TGI,[35],2.26 µM
same,GI50,[36],1.16 µM
same,TGI,[36],2.48 µM
same,GI50,[37],1.53 µM
same,TGI,[37],3.4 µM
same,GI50,[38],1.6 µM
same,TGI,[38],3.42 µM
same,GI50,[39],1.12 µM
same,TGI,[39],2.56 µM
same,GI50,[40],1.87 µM
same,TGI,[40],5.27 µM
same,GI50,[41],5.44 µM
same,TGI,[41],19.8 µM
same,GI50,[42],4.28 µM
same,TGI,[42],17 µM
same,GI50,[43],13.2 µM
same,TGI,[43],33 µM
same,GI50,[44],1.58 µM
same,TGI,[44],4.43 µM
same,GI50,[45],5.08 µM
same,TGI,[45],20.6 µM
same,GI50,[46],1.77 µM
same,TGI,[46],4.02 µM
same,GI50,[47],1.61 µM
same,TGI,[47],3.27 µM
same,GI50,[48],13.4 µM
same,TGI,[48],27.9 µM
same,GI50,[49],1.77 µM
same,TGI,[49],4.09 µM
same,GI50,[50],3.46 µM
same,TGI,[50],18.4 µM
same,GI50,[51],1.08 µM
same,TGI,[51],2.3 µM
same,GI50,[52],2.48 µM
same,TGI,[52],9.12 µM
same,GI50,[53],1.56 µM
same,TGI,[53],3.1 µM
same,GI50,[54],0.624 µM
same,TGI,[54],3.82 µM
same,GI50,[55],1.11 µM
same,TGI,[55],2.43 µM
same,GI50,[56],2.84 µM
same,TGI,[56],8.44 µM
same,GI50,[57],1.25 µM
same,TGI,[57],2.7 µM
